Experimental data taken from publication PMC6934184, “Selective DNA-PKcs inhibition extends the therapeutic index of localized radiotherapy and chemotherapy” (The Journal of Clinical Investigation, 2019).

Molecular target: T1, PRKCE (PKC epsilon) (Homo sapiens, UniProt Q02156)
T1 construct: purchased Thermo Fisher Scientific (Life Technologies) SelectScreen
Experiment: SelectScreen Z'LYTE
Format: biochemical
How it was run: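 NU5455 was profiled across the SelectScreen Broad panel of kinase activity and binding assays. Z'LYTE reactions such as CSF1R ran at apparent Km ATP, while the Adapta CAMK1 assay used ATP listed as 10. Values are given as percent.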

T1 sequence (Q02156 whole entry): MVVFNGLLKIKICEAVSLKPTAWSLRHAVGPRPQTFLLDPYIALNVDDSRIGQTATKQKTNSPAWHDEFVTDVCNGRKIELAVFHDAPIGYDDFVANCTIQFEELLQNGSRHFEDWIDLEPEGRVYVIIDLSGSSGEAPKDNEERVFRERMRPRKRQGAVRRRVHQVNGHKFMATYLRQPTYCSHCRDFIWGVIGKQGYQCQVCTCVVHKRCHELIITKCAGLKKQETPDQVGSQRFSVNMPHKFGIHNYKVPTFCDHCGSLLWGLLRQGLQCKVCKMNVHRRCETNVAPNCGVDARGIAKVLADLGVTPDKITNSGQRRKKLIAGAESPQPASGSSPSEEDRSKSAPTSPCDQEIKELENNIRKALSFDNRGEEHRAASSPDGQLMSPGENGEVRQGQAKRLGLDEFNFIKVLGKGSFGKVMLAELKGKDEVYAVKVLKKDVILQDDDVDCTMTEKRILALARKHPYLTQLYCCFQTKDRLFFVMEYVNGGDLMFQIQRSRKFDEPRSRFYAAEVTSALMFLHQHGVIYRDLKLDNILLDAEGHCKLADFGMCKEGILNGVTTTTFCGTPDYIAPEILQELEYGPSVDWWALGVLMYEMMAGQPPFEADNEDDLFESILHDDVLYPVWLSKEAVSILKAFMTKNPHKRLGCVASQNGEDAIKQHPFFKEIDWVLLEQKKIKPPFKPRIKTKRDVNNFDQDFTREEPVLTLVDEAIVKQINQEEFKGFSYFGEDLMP

## CN(C(=O)CN1CCOCC1)c1ccc2sc3c(-c4cccc5c(=O)cc(N6CC7CCC(C6)O7)oc45)cccc3c2c1 [NU5455]
  inhibition at 1 µM: -4.9%
